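Protocol summary: plate cells (96-well), add compound at 5 concentrations, incubate 48 h, interpolate endpoints linearly. GI50 = concentration required for 50% inhibition of growth.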 Active and inactive are the calls of the source. Cut-off read from the data, not from the text of the source: active = GI50 up to about 1.1 µM and inactive = higher.
Key:
Assay in all cases: NCI-60 cell line screen, 48 h
[1] = system: SNB-19
[2] = system: SW-620
[3] = system: SF-295
[4] = system: OVCAR-4
[5] = system: NCI-H522
[6] = system: MOLT-4
[7] = system: LXFL 529
[8] = system: CAKI-1
[9] = system: ACHN
[10] = system: OVCAR-3
[11] = system: A498
[12] = system: SN12C
[13] = system: K562
[14] = system: A549
[15] = system: OVCAR-8
[16] = system: U-251
[17] = system: DU-145
[18] = system: MDA-N
[19] = system: PC-3
[20] = system: MDA-MB-231

SMILES | GI50 [1] | GI50 [2] | GI50 [3] | GI50 [4] | GI50 [5] | GI50 [6] | GI50 [7] | GI50 [8] | GI50 [9] | GI50 [10] | GI50 [11] | GI50 [12] | GI50 [13] | GI50 [14] | GI50 [15] | GI50 [16] | GI50 [17] | GI50 [18] | GI50 [19] | GI50 [20]
N#CC(/C(CCCC(=O)Nc1cccc([N+](=O)[O-])c1)=N/NC(=O)c1cc2ccccc2cc1O)c1ccccc1 (stereo unspecified) | 28.8 µM (inactive) | 34.6 µM (inactive) | 39.1 µM (inactive) | 31.1 µM (inactive) | 23.1 µM (inactive) | 14.6 µM (inactive) | 27.2 µM (inactive) | 28 µM (inactive) | 34.3 µM (inactive) | 25.8 µM (inactive) | 35.3 µM (inactive) | 35.6 µM (inactive) | 17.7 µM (inactive) | 47.3 µM (inactive) | 17.5 µM (inactive) | 34.6 µM (inactive) |  |  |  | 
CN(C)c1nc(N(C)C)sc(=O)n1 | > 100 µM (inactive) | > 100 µM (inactive) | > 100 µM (inactive) | > 100 µM (inactive) | > 100 µM (inactive) | > 100 µM (inactive) | > 100 µM (inactive) | > 100 µM (inactive) | > 100 µM (inactive) |  | > 100 µM (inactive) | > 100 µM (inactive) | > 100 µM (inactive) | > 100 µM (inactive) | > 100 µM (inactive) | > 100 µM (inactive) |  |  |  | 
O/N=C1/C(=C/c2ccc(Oc3ccccc3)cc2)CCCC1C(NO)c1ccc(Oc2ccccc2)cc1 (stereo unspecified) | > 100 µM (inactive) | 32.4 µM (inactive) | 41.6 µM (inactive) | 29.7 µM (inactive) |  | 4.43 µM (inactive) | 33 µM (inactive) | 33.2 µM (inactive) | 24 µM (inactive) | 32 µM (inactive) |  | 22.8 µM (inactive) | 19.8 µM (inactive) | 13.8 µM (inactive) | 26.4 µM (inactive) | 51.2 µM (inactive) |  |  |  | 
CCS/C(=N\c1ccccc1)SC | > 100 µM (inactive) | > 100 µM (inactive) | > 100 µM (inactive) | > 100 µM (inactive) | > 100 µM (inactive) | > 100 µM (inactive) | > 100 µM (inactive) | > 100 µM (inactive) | > 100 µM (inactive) | > 100 µM (inactive) |  | > 100 µM (inactive) | > 100 µM (inactive) | > 100 µM (inactive) | > 100 µM (inactive) | > 100 µM (inactive) |  |  |  | 
COc1cc2c(cc1OC)C(C(CBr)CBr)N(C1CCCC1)CC2 (stereo unspecified) | > 100 µM (inactive) | > 100 µM (inactive) | > 100 µM (inactive) | > 100 µM (inactive) | > 100 µM (inactive) | > 100 µM (inactive) | > 100 µM (inactive) | > 100 µM (inactive) | > 100 µM (inactive) | > 100 µM (inactive) | > 100 µM (inactive) |  | > 100 µM (inactive) | > 100 µM (inactive) | > 100 µM (inactive) | > 100 µM (inactive) |  |  |  | 
COc1cccc2ccc(C(=O)c3ccccc3)nc12 |  | > 100 µM (inactive) | > 100 µM (inactive) | > 100 µM (inactive) | > 100 µM (inactive) | > 100 µM (inactive) | 77.8 µM (inactive) | > 100 µM (inactive) | > 100 µM (inactive) | > 100 µM (inactive) |  | > 100 µM (inactive) | > 100 µM (inactive) | > 100 µM (inactive) | > 100 µM (inactive) | > 100 µM (inactive) |  |  |  | 
COc1ccc(CC#C/C=C/C(=O)NCC(C)C)cc1 | > 100 µM (inactive) | > 100 µM (inactive) | > 100 µM (inactive) | > 100 µM (inactive) | > 100 µM (inactive) | > 100 µM (inactive) | > 100 µM (inactive) |  | > 100 µM (inactive) | > 100 µM (inactive) |  | > 100 µM (inactive) | 79.3 µM (inactive) | > 100 µM (inactive) | > 100 µM (inactive) | > 100 µM (inactive) |  |  |  | 
COC(=O)N/N=C/c1oc(-c2ccccc2)c(-c2ccccc2)c1[N+](=O)[O-] | > 100 µM (inactive) | > 100 µM (inactive) | > 100 µM (inactive) | > 100 µM (inactive) | > 100 µM (inactive) | > 100 µM (inactive) | > 100 µM (inactive) | > 100 µM (inactive) | > 100 µM (inactive) | > 100 µM (inactive) |  | > 100 µM (inactive) | > 100 µM (inactive) | > 100 µM (inactive) | > 100 µM (inactive) | > 100 µM (inactive) |  |  |  | 
COc1ccc(C(c2c(O)c3ccccc3n(-c3ccccc3)c2=O)c2c(O)c3ccccc3n(-c3ccccc3)c2=O)cc1 | > 100 µM (inactive) | > 100 µM (inactive) |  | > 100 µM (inactive) | > 100 µM (inactive) | > 100 µM (inactive) | > 100 µM (inactive) | > 100 µM (inactive) | > 100 µM (inactive) | > 100 µM (inactive) |  | > 100 µM (inactive) | > 100 µM (inactive) | > 100 µM (inactive) |  | > 100 µM (inactive) |  |  |  | 
CCCN(CCC)C1=Nc2ccccc2-n2cnnc2C1 | > 100 µM (inactive) | > 100 µM (inactive) | > 100 µM (inactive) | > 100 µM (inactive) | 37.8 µM (inactive) | > 100 µM (inactive) | > 100 µM (inactive) |  | > 100 µM (inactive) | > 100 µM (inactive) |  | > 100 µM (inactive) | > 100 µM (inactive) | > 100 µM (inactive) | > 100 µM (inactive) | > 100 µM (inactive) |  |  |  | 
CC(=O)NCc1c(C(N)=O)ncn1Cc1ccccc1 | > 100 µM (inactive) | > 100 µM (inactive) | > 100 µM (inactive) | > 100 µM (inactive) |  | > 100 µM (inactive) | > 100 µM (inactive) | > 100 µM (inactive) | > 100 µM (inactive) | > 100 µM (inactive) | > 100 µM (inactive) | > 100 µM (inactive) | > 100 µM (inactive) | > 100 µM (inactive) | > 100 µM (inactive) | > 100 µM (inactive) |  |  |  | 
C#C[C@@]1(O)CCCC2=CC(=O)C[C@]21C | > 100 µM (inactive) | > 100 µM (inactive) | > 100 µM (inactive) |  | > 100 µM (inactive) | > 100 µM (inactive) | > 100 µM (inactive) |  | > 100 µM (inactive) | > 100 µM (inactive) |  | > 100 µM (inactive) | > 100 µM (inactive) | > 100 µM (inactive) | > 100 µM (inactive) | > 100 µM (inactive) |  |  |  | 
O=C(NN1C(=O)C(Cl)C1c1ccc(O)cc1)c1ccccc1O (stereo unspecified) | 23 µM (inactive) |  | 16.6 µM (inactive) | 23.7 µM (inactive) | 18.1 µM (inactive) | 27.6 µM (inactive) | 17.9 µM (inactive) |  | 19.1 µM (inactive) | 16.7 µM (inactive) |  | 23 µM (inactive) | 22.4 µM (inactive) | 22.4 µM (inactive) | 13.5 µM (inactive) | 14.3 µM (inactive) |  |  |  | 
CCCC(C)NC1=C(NC(C)=O)C(=O)c2ccccc2C1=O (stereo unspecified) | > 100 µM (inactive) | > 100 µM (inactive) | > 100 µM (inactive) | > 100 µM (inactive) | 64.7 µM (inactive) | > 100 µM (inactive) | > 100 µM (inactive) |  | > 100 µM (inactive) | > 100 µM (inactive) |  | > 100 µM (inactive) | > 100 µM (inactive) | > 100 µM (inactive) | > 100 µM (inactive) | > 100 µM (inactive) |  |  |  | 
CCC1(CC)CC(=NNS(=O)(=O)c2ccc(C)cc2)C1 | > 100 µM (inactive) | > 100 µM (inactive) | > 100 µM (inactive) | > 100 µM (inactive) | > 100 µM (inactive) | > 100 µM (inactive) |  | > 100 µM (inactive) | > 100 µM (inactive) | > 100 µM (inactive) | > 100 µM (inactive) | > 100 µM (inactive) | > 100 µM (inactive) | > 100 µM (inactive) | > 100 µM (inactive) | > 100 µM (inactive) | > 100 µM (inactive) | > 100 µM (inactive) | > 100 µM (inactive) | > 100 µM (inactive)
CC1=C(CO)C(=O)O[C@@H]([C@@H](C)[C@H]2CC[C@H]3[C@@H]4C[C@H]5O[C@]56[C@@H](O)C=CC(=O)[C@]6(C)[C@H]4CC[C@]23C)C1 [WITHAFERIN A] | 2.99 µM (inactive) | 0.199 µM (active) | 4.22 µM (inactive) | 0.566 µM (active) | 0.0335 µM (active) | 0.187 µM (active) | 0.333 µM (active) | 0.463 µM (active) | 1.7 µM (inactive) | 1.05 µM (active) |  |  | 0.193 µM (active) | 3.31 µM (inactive) | 0.374 µM (active) | 0.247 µM (active) |  |  |  | 
c1ccc(P2c3ccccc3Nc3ccccc32)cc1 | 59 µM (inactive) | > 100 µM (inactive) | 59.7 µM (inactive) | 38.8 µM (inactive) | 62.5 µM (inactive) | 24.8 µM (inactive) |  | 23.5 µM (inactive) | 86.5 µM (inactive) | 16.3 µM (inactive) | 27.1 µM (inactive) | 41.1 µM (inactive) | 44.1 µM (inactive) | 42.5 µM (inactive) | > 100 µM (inactive) | 56.1 µM (inactive) | 78 µM (inactive) | 91 µM (inactive) | 30 µM (inactive) | 35.3 µM (inactive)
CCCCCCCCCCCCC(O)C(=O)O (stereo unspecified) | > 100 µM (inactive) | > 100 µM (inactive) | > 100 µM (inactive) | > 100 µM (inactive) | > 100 µM (inactive) | > 100 µM (inactive) |  | > 100 µM (inactive) | > 100 µM (inactive) | > 100 µM (inactive) | > 100 µM (inactive) | > 100 µM (inactive) | > 100 µM (inactive) | > 100 µM (inactive) | > 100 µM (inactive) | > 100 µM (inactive) | > 100 µM (inactive) | > 100 µM (inactive) | > 100 µM (inactive) | > 100 µM (inactive)
